The experiment concerns the target T1, kinase domain protein of RC kinase (Homo sapiens, UniProt Q56UN5).
T1 sequence (Q56UN5 1061-1324 limits assumed): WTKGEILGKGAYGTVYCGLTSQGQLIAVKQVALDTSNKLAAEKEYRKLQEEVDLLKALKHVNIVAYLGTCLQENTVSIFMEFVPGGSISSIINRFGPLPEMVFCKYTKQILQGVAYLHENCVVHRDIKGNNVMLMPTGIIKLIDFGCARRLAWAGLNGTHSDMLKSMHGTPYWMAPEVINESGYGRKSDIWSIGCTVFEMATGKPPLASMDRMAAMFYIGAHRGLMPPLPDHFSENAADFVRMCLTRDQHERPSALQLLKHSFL
As to the kind of experiment: Enzymatic assay for kinase inhibitory activity (Crebtide substrate, LANCE read-out). Type of experiment: biochemical. The following applies: compound at 1 μM. The protocol: Solutions of a test compound, Crebtide (a substrate), a kinase, and ATP were prepared using 1×MAPK Buffer (50 mM HEPES, 1 mM EGTA, […], 10 mM MgCl2, 2 mM DTT, and 0.01% Tween 20).
To each well, the test compound (1 μL) was first added (in duplicate) to reach a final concentration of 1 μM or 1×IC50 of the compound. The kinase (5 μl) was then added to each well to reach a final concentration of […] for the kinase domain or […] for the full-length domain. Each plate included a positive and negative controls in duplicate wells. Crebtide (2.5 μL) was then added to each well in duplicate to reach a final concentration of 50 nM. If the full-length kinase was used, the plates were incubated for 45 min at room temperature before proceeding further. ATP (2.5 μL) was added to each well to reach a final concentration of 1 μM for the kinase domain and 3 μM for the full-length.
After the addition of ATP, the plates were incubated for 45 min at room temperature. During the incubation, an EDTA solution (40 mM) and anti-Crebtide ([…]) were prepared. Additionally, a detection buffer stock solution was diluted ten fold before use.
After the incubation, the anti-Crebtide (5 μL) and EDTA (5 μL) were added to each well to reach their final concentrations of […] and 10 mM, respectively. The plates were allowed to develop at room temperature for 45 min. The plates were then read at 665 nm and 615 nm using Perkin Elmer Lance machine.
The biological results of inhibition of the kinase domain protein of RC kinase are summarized in Tables 2 and 3, wherein A represents at least 50% inhibition of the RC kinase activity at 1 μM; B represents no greater than 50% but at least 20% inhibition of the RC kinase activity at 1 μM; C represents no greater than 20% but at least 5% inhibition of the RC kinase activity at 1 μM; and D represents no greater than 5% inhibition of the RC kinase activity at 1 μM.

The record followed here is patent publication US9365556B2, “3,5-diaminopyrazole kinase inhibitors” (Axikin Pharmaceuticals, Inc., priority 2012, dated 2016).

As for `COc1ccc(/C=N/c2[nH]nc(Nc3cccc(Cl)c3)c2C(N)=O)c(C)c1C` [Compound B57], the “Activity (inhibition of the RC kinase activity)” value was “B (no greater than 50% but at least 20% inhibition of the RC kinase activity at 1 μM)”.
`COc1ccc(F)cc1/C=N/c1[nH]nc(Nc2cccc(Cl)c2)c1C(N)=O` [Compound B58]: the inhibition at 1 µM was 20 to 50%.
Consider `NC(=O)c1c(Nc2cccc(Cl)c2)n[nH]c1/N=C/c1ccc(Cl)nc1` [Compound B59], for which the inhibition at 1 µM is not above 5%.
On to `NC(=O)c1c(Nc2cccc(Cl)c2)n[nH]c1/N=C/c1ccc(-c2ccccn2)s1` [Compound B60], for which the “Activity (inhibition of the RC kinase activity)” value is recorded as “D (no greater than 5% inhibition of the RC kinase activity at 1 μM)”.
Turning to `Cc1cc(/C=N/c2[nH]nc(Nc3cccc(Cl)c3)c2C(N)=O)cc(C)c1O` [Compound B61, 3-((3-chlorophenyl)amino)-5-((4-hydroxy-3,5-dimethylbenzylidene)amino)-1H-pyrazole-4-carboxamide], the inhibition at 1 µM was not below 50%.
Still for that read-out and setting: in the case of `Cc1ncsc1/C=N/c1[nH]nc(Nc2cccc(Cl)c2)c1C(N)=O` [Compound B62, 3-((3-chlorophenyl)amino)-5-(((4-methylthiazol-5-yl)methylene)amino)-1H-pyrazole-4-carboxamide] it was not below 50%.
Consider `NC(=O)c1c(Nc2cccc(Cl)c2)n[nH]c1/N=C/c1ccc(Oc2ccc(C(F)(F)F)cn2)cc1` [Compound B63], for which the “Activity (inhibition of the RC kinase activity)” value is reported as “B (no greater than 50% but at least 20% inhibition of the RC kinase activity at 1 μM)”.
As for `NC(=O)c1c(Nc2cccc(Cl)c2)n[nH]c1/N=C/c1ccc(Oc2ncccn2)cc1` [Compound B64, 3-((3-chlorophenyl)amino)-5-((4-(pyrimidin-2-yloxy)benzylidene)amino)-1H-pyrazole-4-carboxamide], the inhibition at 1 µM is not below 50%.
For the molecule `NC(=O)c1c(Nc2cccc(Cl)c2)n[nH]c1/N=C/c1ccccc1-c1cccs1` [Compound B65], the inhibition at 1 µM fell in the range of 20 to 50%.
For `NC(=O)c1c(Nc2cccc(Cl)c2)n[nH]c1/N=C/c1ccc(N2CCCC2)nc1` [Compound B66], the inhibition at 1 µM lay in the range of 20 to 50%.
Same read-out and setting: as for `Cn1nc(CSc2ccccc2)c(/C=N/c2[nH]nc(Nc3cccc(Cl)c3)c2C(N)=O)c1Cl` [Compound B67], the figure is 20 to 50%; as for `NC(=O)c1c(Nc2cccc(Cl)c2)n[nH]c1/N=C/c1ccc(OC(F)F)c(O)c1` [Compound B68], not below 50%.
Regarding `Cc1[nH]c2ccccc2c1/C=N/c1[nH]nc(Nc2cccc(Cl)c2)c1C(N)=O` [Compound B69], the “Activity (inhibition of the RC kinase activity)” value was “B (no greater than 50% but at least 20% inhibition of the RC kinase activity at 1 μM)”.
Same read-out and setting: as for `CCc1nc(C)c(/C=N/c2[nH]nc(Nc3cccc(Cl)c3)c2C(N)=O)[nH]1` [Compound B70], the entry is “B (no greater than 50% but at least 20% inhibition of the RC kinase activity at 1 μM)”.
Turning to `NC(=O)c1c(Nc2cccc(Cl)c2)n[nH]c1/N=C/c1cccn1S(=O)(=O)c1ccccc1` [Compound B71, 3-((3-chlorophenyl)amino)-5-(((1-(phenylsulfonyl)-1H-pyrrol-2-yl)methylene)amino)-1H-pyrazole-4-carboxamide], the inhibition at 1 µM lay in the range of 20 to 50%.
For the molecule `NC(=O)c1c(Nc2cccc(Cl)c2)n[nH]c1/N=C/c1nc(-c2ccccc2)[nH]c1Cl` [Compound B72], the “Activity (inhibition of the RC kinase activity)” value was “B (no greater than 50% but at least 20% inhibition of the RC kinase activity at 1 μM)”.
The same measure, in the same setting: as for `NC(=O)c1c(Nc2cccc(Cl)c2)n[nH]c1/N=C/c1ccc(-c2ccc(Cl)cc2)o1` [Compound B73], the entry is “B (no greater than 50% but at least 20% inhibition of the RC kinase activity at 1 μM)”.
For the molecule `COc1cc(/C=N/c2[nH]nc(Nc3cccc(Cl)c3)c2C(N)=O)cc(O)c1OC` [Compound B74], the inhibition at 1 µM was in the range of 5 to 20%.
The same measure, in the same setting: as for `NC(=O)c1c(Nc2cccc(Cl)c2)n[nH]c1/N=C/c1ccc(Oc2nccc(C(F)(F)F)n2)cc1` [Compound B75], the figure is 5 to 20%.
On to `NC(=O)c1c(Nc2cccc(Cl)c2)n[nH]c1/N=C/c1c[nH]c2c(F)c(F)c(F)c(F)c12` [Compound B76], for which the “Activity (inhibition of the RC kinase activity)” value is reported as “D (no greater than 5% inhibition of the RC kinase activity at 1 μM)”.
For the molecule `NC(=O)c1c(Nc2cccc(Cl)c2)n[nH]c1/N=C/c1cccc(Oc2ncccn2)c1` [Compound B77], the inhibition at 1 µM lay within 5 to 20%.
Turning to `NC(=O)c1c(Nc2cccc(Cl)c2)n[nH]c1/N=C/c1ncc(Cl)nc1Cl` [Compound B78], the inhibition at 1 µM was not above 5%.
Same read-out and setting: as for `NC(=O)c1c(Nc2cccc(Cl)c2)n[nH]c1/N=C/c1cnccn1` [Compound B80], the figure is not above 5%.
Turning to `Cn1nc(C(F)(F)F)c(/C=N/c2[nH]nc(Nc3cccc(Cl)c3)c2C(N)=O)c1Cl` [Compound B81], the inhibition at 1 µM is not above 5%.
As for `NC(=O)c1c(Nc2cccc(Cl)c2)n[nH]c1/N=C/c1c(F)cccc1Cl` [Compound B82], the “Activity (inhibition of the RC kinase activity)” value is listed as “D (no greater than 5% inhibition of the RC kinase activity at 1 μM)”.
Consider `NC(=O)c1c(Nc2cccc(Cl)c2)n[nH]c1/N=C/c1ccc(F)cc1O` [Compound B83], for which the inhibition at 1 µM is 5 to 20%.
The same measure, in the same setting: in the case of `NC(=O)c1c(Nc2cccc(Cl)c2)n[nH]c1/N=C/c1ccc(CO)o1` [Compound B84, 3-((3-chlorophenyl)amino)-5-(((5-(hydroxymethyl)furan-2-yl)methylene)amino)-1H-pyrazole-4-carboxamide] it was not below 50%.
The same measure, in the same setting: in the case of `NC(=O)c1c(Nc2cccc(Cl)c2)n[nH]c1/N=C/c1cc(F)c(O)c(F)c1` [Compound B86, 3-((3-chlorophenyl)amino)-5-((3,5-difluoro-4-hydroxybenzylidene)amino)-1H-pyrazole-4-carboxamide] it was not below 50%.
Still for that read-out and setting: as for `N#Cc1cc(/C=N/c2[nH]nc(Nc3cccc(Cl)c3)c2C(N)=O)ccc1F` [Compound B87], the figure is not above 5%.
On to `NC(=O)c1c(Nc2cccc(Cl)c2)n[nH]c1/N=C/c1ncccc1F` [Compound B88], for which the inhibition at 1 µM was not above 5%.
Turning to `NC(=O)c1c(Nc2cccc(Cl)c2)n[nH]c1/N=C/c1ccc(OC(F)(F)F)c(F)c1` [Compound B90], the “Activity (inhibition of the RC kinase activity)” value is recorded as “D (no greater than 5% inhibition of the RC kinase activity at 1 μM)”.
With `Cn1c(Cl)c(/C=N/c2[nH]nc(Nc3cccc(Cl)c3)c2C(N)=O)c2ccccc21` [Compound B91], the “Activity (inhibition of the RC kinase activity)” value is “D (no greater than 5% inhibition of the RC kinase activity at 1 μM)”.
With `CS(=O)(=O)c1ccc(/C=N/c2[nH]nc(Nc3cccc(Cl)c3)c2C(N)=O)cc1` [Compound B92, 3-((3-chlorophenyl)amino)-5-((4-(methylsulfonyl)benzylidene)amino)-1H-pyrazole-4-carboxamide], the inhibition at 1 µM is not above 5%.
Turning to `NC(=O)c1c(Nc2cccc(Cl)c2)n[nH]c1/N=C/c1ccc(Cl)cc1Cl` [Compound B93], the “Activity (inhibition of the RC kinase activity)” value was “D (no greater than 5% inhibition of the RC kinase activity at 1 μM)”.
In the case of `NC(=O)c1c(Nc2cccc(Cl)c2)n[nH]c1/N=C/c1ccc(Cl)cc1O` [Compound B94], the inhibition at 1 µM fell in the range of 5 to 20%.
Turning to `NC(=O)c1c(Nc2cccc(Cl)c2)n[nH]c1/N=C/C1CCNCC1` [Compound B96], the “Activity (inhibition of the RC kinase activity)” value is listed as “D (no greater than 5% inhibition of the RC kinase activity at 1 μM)”.
For `NC(=O)c1c(Nc2cccc(Cl)c2)n[nH]c1/N=C/c1ccc(-n2cnc3ccccc32)cc1` [Compound B97], the “Activity (inhibition of the RC kinase activity)” value is “D (no greater than 5% inhibition of the RC kinase activity at 1 μM)”.
The same measure, in the same setting: as for `NC(=O)c1c(Nc2cccc(Cl)c2)n[nH]c1/N=C/c1c[nH]nc1-c1ccc(F)cc1` [Compound B98], the entry is “C (no greater than 20% but at least 5% inhibition of the RC kinase activity at 1 μM)”.
On to `N#Cc1c(Nc2cccc(Cl)c2)n[nH]c1/N=C/c1cnc(N)s1` [Compound B99], for which, for the setting “1 µM”, the “Activity (inhibition of the RC kinase activity)” value is reported as “A (at least 50% inhibition of the RC kinase activity at 1 μM)”.
On to `Cc1cc(/C=N/c2[nH]nc(Nc3cccc(Cl)c3)c2C#N)no1` [Compound B100], for which the “Activity (inhibition of the RC kinase activity)” value is listed as “C (no greater than 20% but at least 5% inhibition of the RC kinase activity at 1 μM)”.
Regarding `NC(=O)c1c(Nc2cccc(Cl)c2)n[nH]c1/N=C/c1ccc(N2CCOCC2)nc1` [Compound B101], the inhibition at 1 µM was 5 to 20%.
Still for that read-out and setting: in the case of `NC(=O)c1c(Nc2cccc(Cl)c2)n[nH]c1/N=C/c1c(O)cccc1Cl` [Compound B103] it was 5 to 20%.
